Measured values from article PMC10894853, “Distribution and elimination kinetics of midazolam and metabolites after post-resuscitation care: a prospective observational study” (Scientific Reports, 2024).

Tests used:
[1] = Non-compartmental pharmacokinetics of midazolam and metabolites in plasma after discontinuation of MDZ infusion (LC-MS/MS); format: in vivo, human; details: for AUClast / AUCinf: relative concentration; for MRT inf: read-out: MRTinf (mean residence time); for MRT last: read-out: MRTlast (mean residence time)
Description: The PK parameters were obtained using a non-compartmental method with Phoenix WinNonlin (version 8.3.5; Certara, USA). […] The AUC from time 0 to infinity (AUCinf) was calculated as AUClast + Clast/λz, where Clast is the last measurable concentration and λz is the elimination rate constant. The mean residence time was calculated as […]. The estimated t1/2 was calculated from λz based on a previously reported equation[12].
All samples were immediately frozen and stored at –70 ℃ after centrifugation with 3,000 rpm for 10 min and then sent to the Nutrition Food Microbiology Laboratory at Chungnam National University (http://nfml.kr/) to determine the concentration of midazolam and its metabolites using liquid chromatography with tandem mass spectrometry analysis.
The sample preparation method was performed as previously described with some modifications. A 20 µL of sample was mixed with 180 µL of 80% methanol, followed by protein precipitation at 4 °C for 30 min. Subsequently, the supernatant was harvested and added to 1800 µL of distilled water. The pre-treated samples were loaded onto an Oasis HLB Vac RC cartridge (30 mg, 20 cc, Waters) that had been preconditioned with 6 mL of methanol and 6 mL of distilled water. The cartridge was washed with 6 mL distilled water and sequentially eluted with methanol (4 mL). The eluted samples were dried using an evaporator and resuspended with 0.2 mL of methanol for analysis.

[2] = Distribution (proportion of total relative concentration) of midazolam and metabolites in plasma after discontinuation of MDZ infusion; details: range over sampling times 0 to 24 h
Description: Serum samples for analyzing the plasma concentration of MDZ and its metabolites were obtained immediately (baseline) and at 4, 8, 12, and 24 h after the discontinuation of MDZ infusion.
The distribution of each compound was assessed by calculating its relative concentration as a ratio to the total sum of relative concentrations at each sampling time.

[3] = Awakening time and estimated midazolam concentration at awakening (simple linear regression); format: in vivo, human
Description: The primary outcome of this study was the distribution and elimination of MDZ and its metabolites over 24 h following the discontinuation of MDZ infusion after targeted temperature management (33 or 36℃). The secondary outcome was the association between the PK parameters and awakening time in a subgroup of patients who experienced neurological recovery.
We investigated the PK parameters for all compounds in each individual. […] Among these four patients, the mean of the estimated MDZ concentration was 16.8 ng/mL.
Figure 4 Simple linear regression analysis between the absolute concentration of midazolam and awakening time in the subgroup of awakened patients after post-resuscitation care (n = 7). […] The regression line (grid line) is followed the regression equation: Y = − 4.506 × X + 105.5.

[4] = cited from earlier work
[5] = after discontinuation of MDZ infusion, mean ± SD
[6] = plasma, 0 to 24 h after discontinuation of MDZ infusion, arithmetic mean ± SD
[7] = plasma, time 0 to infinity after discontinuation of MDZ infusion, mean ± SD
[8] = human, plasma, intravenous, after discontinuation of MDZ infusion, mean ± SD

Row | Molecule | MRTinf (mean residence time) [1, 5] [h] | MRTlast (mean residence time) [1, 5] [h] | t1/2 (elimination half-life) [1, 5] [h] | AUClast [1, 6] | AUCinf [1, 7] | further results
1 | di-hydroxymidazolam glucuronide [Di-OH-MDZ-Glu] | 19.2 ± 13.0 | 6.4 ± 2.1 | 14.3 ± 9.6 | 187.4 ± 272.0 h*ppm | 200.2 ± 307.1 h*ppm | 
2 | Cc1ncc2n1-c1ccc(Cl)cc1C(c1ccccc1F)=NC2 [MDZ, midazolam] |  |  | 6.2 ± 3.9 |  |  | AUC(0-t) ([1]; human, intravenous, plasma, 0 to 24 h after discontinuation of MDZ infusion, absolute concentration, arithmetic mean ± SD): 1770 ± 2740 ng·h/mL; AUC(0-inf) ([1]; human, intravenous, plasma, time 0 to infinity after discontinuation of MDZ infusion, absolute concentration, mean ± SD): 2110 ± 3050 ng·h/mL; MRT inf [1, 8]: 8.2 ± 5.2 h; MRT last [1, 8]: 4.9 ± 1.6 h; Proportion in total concentration [2]: 21.2–38.4%; concentration at 16.6 h ([3]; human, plasma, intravenous, 0.15 mg/kg/h, from regression equation Y = − 4.506 × X + 105.5 at 16.6 h, awakened patients n = 7, read-out: Estimated concentration of midazolam at the subgroup awakening time): 30.7 ng/mL; Mean of the estimated MDZ concentration at awakening time ([3]; individual regression analysis, four out of seven awakened patients): 16.8 ng/mL; Awakening time in the subgroup after discontinuation of the midazolam infusion ([3]; subgroup of awakened patients n = 7): 16.6 h; Awaken time after discontinuation of midazolam intravenous infusion ([3]; subject #1): 9.6 h; Estimated midazolam concentration at awaken time ([3]; subject #1): 32.3 ng/mL; Awaken time after discontinuation of midazolam intravenous infusion ([3]; subject #2): 10.4 h; Estimated midazolam concentration at awaken time ([3]; subject #2): 20.8 ng/mL; Awaken time after discontinuation of midazolam intravenous infusion ([3]; subject #3): 9.6 h; Estimated midazolam concentration at awaken time ([3]; subject #3): 2.2 ng/mL; Awaken time after discontinuation of midazolam intravenous infusion ([3]; subject #4): 7.1 h; Estimated midazolam concentration at awaken time ([3]; subject #4): 11.9 ng/mL
3 | dihydroxymidazolam [Di-OH-MDZ] | 21.0 ± 19.8 | 6.4 ± 2.5 | 14.5 ± 13.7 | 38.2 ± 49.8 h*ppm | 56.2 ± 52.1 h*ppm | 
4 | Cc1ncc2n1-c1ccc(Cl)cc1C(c1ccccc1F)=NC2O (stereo not drawn) [4-OH-MDZ, 4-hydroxymidazolam] |  |  |  | 172.5 ± 268.0 h*ppm | 204.7 ± 294.8 h*ppm | Potency for sedation [4]: 0–2%; MRT inf [1, 8]: 10 ± 4.8 h; MRT last [1, 8]: 5.6 ± 1.5 h; half-life ([1]; human, plasma, intravenous, after discontinuation of MDZ infusion, mean ± SD, read-out: t1/2 (elimination half-life) (converted)): 7.3 ± 3.8 h
5 | O=C(O)[C@H]1O[C@@H](OCc2ncc3n2-c2ccc(Cl)cc2C(c2ccccc2F)=NC3)[C@H](O)[C@@H](O)[C@@H]1O [1-OH-MDZ-Glu, 1-hydroxymidazolam glucuronide] | 21.8 ± 26.8 | 6.8 ± 2.4 | 15.4 ± 19.9 | 9193.0 ± 13,958.4 h*ppm | 14,027.8 ± 15,486.2 h*ppm | Pharmacological potency (sedation) [4]: < 6%; Potency for sedation [4]: 6–10%
6 | midazolam glucuronide [MDZ-Glu] | 16.2 ± 24.1 | 5.8 ± 1.9 |  |  |  | 
7 | OCc1ncc2n1-c1ccc(Cl)cc1C(c1ccccc1F)=NC2 [1-OH-MDZ, 1-hydroxymidazolam] | 10.5 ± 5.2 | 6.0 ± 2.3 | 8.1 ± 4.9 | 1117.2 ± 1643.5 h*ppm | 1419.1 ± 1845.5 h*ppm | Potency for sedation effect [4]: 60–63%; Proportion in total concentration [2]: 3.3–4.2%
8 | Cc1ncc2n1-c1ccc(Cl)cc1C(c1ccccc1F)=NC2O[C@@H]1O[C@H](C(=O)O)[C@@H](O)[C@H](O)[C@H]1O (stereo partly drawn) [4-OH-MDZ-Glu, 4-hydroxymidazolam glucuronide] | 7.9 ± 1.4 | 6.4 ± 2.2 | 5.4 ± 0.7 | 29.8 ± 24.4 h*ppm | 33.3 ± 34.3 h*ppm | 
